MIC data for one compound are collected here from patent US8906868B2, “Aminoglycoside derivatives” (Rempex Pharmaceuticals, Inc., priority 2010, dated 2014).

In one experiment the test system is ECM6006 aph(3′)-III. As to the kind of experiment: microbe, parasite or virus in culture. It counts as cell-based, Escherichia coli. The conditions noted are these: Escherichia coli, read-out: Compound MIC on Bacterial Strains: ECM6006 aph(3′)-III. In a few lines: (§1)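 Broth microdilution per CLSI M7-A7 in cation-adjusted Mueller Hinton broth, 2-fold serial dilutions, inoculum 5×10^5 CFU/ml from overnight colonies. Incubated 18 hours at 35° C. MIC read as turbidity at 600 nm, confirmed visually.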

A further experiment concerns ECM6009 aac(3)-II. As to the kind of experiment: microbe, parasite or virus in culture. It counts as cell-based, Escherichia coli. Conditions: Escherichia coli, read-out: Compound MIC on Bacterial Strains: ECM6009 aac(3)-II. In a few lines:
as §1

Another experiment deals with ECM6010 ant(2″)-I. As to the kind of experiment: microbe, parasite or virus in culture. It counts as cell-based, Escherichia coli. The conditions noted are these: Escherichia coli, read-out: Compound MIC on Bacterial Strains: ECM6010 ant(2″)-I. Put shortly:
as §1

In another experiment the test system is ECM6011 aph(3′)-I. In words: microbe, parasite or virus in culture. Conditions: Escherichia coli, read-out: Compound MIC on Bacterial Strains: ECM6011 aph(3′)-I. It counts as cell-based, Escherichia coli. In a few lines:
as §1

A further experiment concerns ECM6003 rmtB. As to the kind of experiment: microbe, parasite or virus in culture. Format: cell-based, Escherichia coli. Conditions: Escherichia coli; Table 3; read-out: Compound MIC on Bacterial Strains: ECM6003 rmtB. In a few lines:
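Broth microdilution per CLSI M7-A7 in cation-adjusted Mueller Hinton broth with 2-fold serial dilutions and 5×10^5 CFU/ml inoculum. Incubated 18 hours at 35 °C; MIC read by turbidity at 600 nm and confirmed visually.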

The subject of the next experiment is EC1002 aph(3′)-IV. In words: organism not typed. Conditions: read-out: Compound MIC on Bacterial Strains: EC1002 aph(3′)-IV. It counts as cell-based. In a few lines: as §1
Another experiment has as its system EC1001 acc(6′)-Ib. As to the kind of experiment: microbe, parasite or virus in culture. Format: cell-based, Escherichia coli. Conditions: Escherichia coli; Table 4; read-out: Compound MIC on Bacterial Strains: Escherichia coli EC1001 acc(6′)-Ib. In a few lines:
(§2)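 Broth microdilution per CLSI guidelines: compounds serially diluted 2-fold in cation-adjusted Mueller Hinton broth, inoculum 5×10^5 CFU/ml from overnight colonies, 18 hours at 35° C. MIC read by turbidity at 600 nm and confirmed visually.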

Experiment [1] concerns ECM6007 aac(6′) + aph(2″). In words: microbe, parasite or virus in culture. Format: cell-based, Escherichia coli. Conditions: Escherichia coli, 18 h; Table 4; read-out: Compound MIC on Bacterial Strains: Escherichia coli ECM6007 aac(6′) + aph(2″). In a few lines: as §2
The next experiment relates to ACM1005 ATCC 19004. As to the kind of experiment: MIC, broth microdilution. It counts as cell-based, Acinetobacter baumannii. Conditions: Acinetobacter baumannii, ATCC19004; Table 4; read-out: Compound MIC on Bacterial Strains: Acinetobacter baumannii ACM1005 ATCC 19004. In a few lines: as §2
In general terms: In broth dilution the organism is exposed to a series of concentrations in liquid medium.

The next experiment relates to ACM1006 acc(6′)-Ib. As to the kind of experiment: microbe, parasite or virus in culture. Format: cell-based, Acinetobacter baumannii. The conditions noted are these: Acinetobacter baumannii; Table 4; read-out: Compound MIC on Bacterial Strains: Acinetobacter baumannii ACM1006 acc(6′)-Ib. In a few lines:
as §2

For the next experiment, the system named is PAM3072 aac(6′)-II. As to the kind of experiment: microbe, parasite or virus in culture. Format: cell-based, Pseudomonas aeruginosa. Conditions: Pseudomonas aeruginosa, Table 5; read-out: Compound MIC on Bacterial Strains: Pseudomonas aeruginosa PAM3072 aac(6′)-II. In a few lines:
as §2

The next experiment deals with PAM3073 aac(6′)-I. In words: microbe, parasite or virus in culture. It counts as cell-based, Pseudomonas aeruginosa. Conditions: Pseudomonas aeruginosa, Table 5; read-out: Compound MIC on Bacterial Strains: Pseudomonas aeruginosa PAM3073 aac(6′)-I. Put shortly: as §2
The subject of the next experiment is Sa 287 aac(6′) + aph(2″). In words: microbe, parasite or virus in culture. It counts as cell-based, Staphylococcus aureus. Conditions: Staphylococcus aureus, 18 h; Table 5; read-out: Compound MIC on Bacterial Strains: Staphylococcus aureus Sa 287 aac(6′) + aph(2″). The protocol:
To compare microbiological activity of the test compounds, minimum inhibitory concentrations (MIC.s) were determined. Antibiotic MICs were obtained using the broth microdilution method according to Clinical and Laboratory Standards Institute (CLSI) approved guidelines (Methods for dilution antimicrobial susceptibility tests for bacteria that grow aerobically; approved standard—7th ed. CLSI document M7-A7. Clinical and Laboratory Standards Institute, Wayne, Pa., incorporated herein by reference in its entirety). Antibiotics were dissolved as specified by CLSI (Performance standards for antimicrobial susceptibility testing; Seventeenth informational supplement. CLSI document M100-S17. Clinical and Laboratory Standards Institute, Wayne, Pa., incorporated herein by reference in its entirety), and were serially diluted 2-fold in cation adjusted Mueller Hinton Broth (CaMHB) at 2× concentration. Bacterial inoculums were prepared in CaMHB by suspension of a colony from an agar plate that was prepared the previous day to obtain a final concentration of 5×10^5CFU/ml. The plates were incubated for 18 hours at 35° C. […] MIC.s were determined by reading the turbidity of plate wells using a SpectraMax Plus384 plate reader (Molecular Devices, Sunnyvale, Calif., USA) at 600 nm and were confirmed by visual inspection.

For experiment [2], the system named is Escherichia coli (ATCC 25922). In words: MIC, broth microdilution. The conditions noted are these: Escherichia coli.
Experiment [3] relates to Staphylococcus aureus (ATCC 29213). As to the kind of experiment: MIC, broth microdilution. The conditions noted are these: Staphylococcus aureus.
Experiment [4] has as its system Klebsiella pneumonia (ATCC 43816). As to the kind of experiment: MIC, broth microdilution. The conditions noted are these: Klebsiella pneumoniae, ATCC43816, read-out: Compound MIC on Bacterial Strains: K. pneumonia ATCC 43816.
The subject of experiment [5] is Pseudomonas aeruginosa (ATCC 27853). In words: MIC, broth microdilution. The conditions noted are these: Pseudomonas aeruginosa.
Experiment [6] has as its system Acinetobacter baumannii (ATCC 19606). As to the kind of experiment: MIC, broth microdilution. The conditions noted are these: Acinetobacter baumannii, ATCC19606, read-out: Compound MIC on Bacterial Strains: A. baumannii ATCC 19606.

The structures appear in SMILES notation. In brackets after ≈: the same amount, converted by molar mass. Read-outs that look alike come from different tables or passages of the source.

Regarding `CN[C@@H]1C(O)[C@@H](OC2C(O)C(O[C@H]3O[C@H](CN)CCC3N)[C@@H](N)C[C@H]2NC(=O)[C@@H](O)[C@@H](O)CN)OCC1(C)O` (stereo partly drawn) [Compound 21, (2S,3R)-4-amino-N-((1R,2S,3S,4R,5S)-5-amino-4-((2R,3R,6S)-3-amino-6-(aminomethyl)tetrahydro-2H-pyran-2-vyloxy)-2-((2R,3R,4R,5R)-3,5-dihydroxy-5-methyl-4-(methylamino)tetrahydro-2H-pyran-2-yloxy)-3-hydroxycyclohexyl)-2,3-dihydroxybutanamide], the MIC was 1 to 8 µg/mL (≈ 1.76 to 14.1 µM) in the experiment on ECM6006 aph(3′)-III; less than 1 µg/mL in the experiment on ECM6009 aac(3)-II; less than 1 µg/mL in the experiment with ECM6010 ant(2″)-I; 1 to 8 µg/mL (≈ 1.76 to 14.1 µM) with ECM6011 aph(3′)-I; 1 to 8 µg/mL (≈ 1.76 to 14.1 µM) in the experiment on ECM6003 rmtB; 1 to 8 µg/mL (≈ 1.76 to 14.1 µM) in the experiment with EC1002 aph(3′)-IV. In addition, the MIC in the experiment with EC1001 acc(6′)-Ib is more than 8 µg/mL; in experiment [1] it was less than 1 µg/mL; with ACM1005 ATCC 19004, 1 to 8 µg/mL (≈ 1.76 to 14.1 µM); with ACM1006 acc(6′)-Ib it was 1 to 8 µg/mL (≈ 1.76 to 14.1 µM); with PAM3072 aac(6′)-II it was more than 8 µg/mL; with PAM3073 aac(6′)-I it was 1 to 8 µg/mL (≈ 1.76 to 14.1 µM). Also, the MIC was 1 to 8 µg/mL in the experiment on Sa 287 aac(6′) + aph(2″); less than 1 µg/mL in experiment [2] (ATCC25922, read-out: Compound MIC on Bacterial Strains: E. coli ATCC 25922); 1 to 8 µg/mL (≈ 1.76 to 14.1 µM) in [2] (ATCC25922, read-out: Compound MIC on Bacterial Strains: ECM6000 ATCC 25922); 1 to 8 µg/mL (≈ 1.76 to 14.1 µM) in experiment [2] (ATCC25922, read-out: Compound MIC on Bacterial Strains: Escherichia coli ECM6000 ATCC 25922); less than 1 µg/mL in [3] (ATCC29213, read-out: Compound MIC on Bacterial Strains: S. aureus ATCC 29213, QC strain, Table 2); less than 1 µg/mL in experiment [3] (ATCC29213, read-out: Compound MIC on Bacterial Strains: Staphylococcus aureus SAM1000 ATCC 29213, Table 5). The MIC in experiment [4] is less than 1 µg/mL; in [5] (ATCC27853, read-out: Compound MIC on Bacterial Strains: P. aeruginosa ATCC 27853), less than 1 µg/mL; in [5] (ATCC27853, read-out: Compound MIC on Bacterial Strains: Pseudomonas aeruginosa PAM3034 ATCC 27853) it was 1 to 8 µg/mL (≈ 1.76 to 14.1 µM); in experiment [6] it was more than 8 µg/mL.
